In US20040019092A1, “Non-peptide somatostatin receptor ligands” (priority 2001, published 2004):
Several values for one entry are separate records, joined by “and”; a condition that tells them apart may be missing. Equal values may be shown once.

What was measured:
[1] = target: T1, human sst2 receptor sub-type (Homo sapiens, UniProt P30874); experiment: In vitro binding, human sst2 receptor sub-type (SSTR2); settings: Tables 8/9: Bind SSTR2 nM
T1 construct: host or cells: SRIF receptor expressing cell cultures (general statement only)
Method: The in vitro binding affinities for rat cortex SRIF receptors and the human sst2 receptor sub-type was assessed. Further the in vitro inhibition of the GHRH induced GH secretion in primary cultures of rat pituitary cells as well as the in vivo inhibition of GH secretion in the rat after systemic or enteral application was studied. […] Therefore, the in vivo activities of the compounds in rats with respect to inhibition of growth hormone release was also assessed. Most compounds selected were tested by enteral—intraduodenal (i.d.) application. For determination of the absolute activity and for the calculation of an enteral bioavailability, single subcutaneous (s.c.) application of intravenous (i.v.) infusion was used.

GH secretion [2] = experiment: GH secretion in vivo, rat, subcutaneous application, 1 h (basal); settings: rat, basal GH secretion, 1 h after subcutaneous application
Method: (§1) Animals, anesthesia: Male rats of a Sprague Dawley strain (Ico:OFA-SD, Iffa-Credo, F-Lyon) of 200-300 g body weight were used. They were kept under standardized conditions and were anesthetized with pentobarbital-sodium (Siegfried, CH Zofingen), 60 mg/kg i.p. for subcutaneous and intraduodenal applications. Animals designed for an infusion experiment were anesthetized with urethane (Siegfried, CH Zofingen), 1.2 g/kg i.p.
(§2) Compounds: The compounds were dissolved, optionally with the aid of one or more of the following adjuncts:
(§3) Stock solutions of the compounds were prepared in water with the addition of the necessary adjunct(s). Further dilutions were prepared allowing 5 mL/kg for subcutaneous application, 2 mL for intraduodenal (i.d.) application or 4.5 mL/kg for intravenous infusion. The solutions for the intravenous application/infusion were made isotonic by addition of glucose to a final concentration of 5%.
(§4) Applications were made, or, in the case of infusion, started, approximately 10 minutes after induction of anesthesia. No further treatment followed subcutaneous or intraduodenal application. Ten, twenty-five and fifty-five minutes after start of the intravenous infusion the GH secretion was stimulated with repeated intravenous injections of the potent GHRH analog, D-Ala2 GHRH1-29NH2, 1 μg/kg.
(§5) One hour after subcutaneous or intraduodenal application of the compounds, blood was collected from the trunk after decapitation. In the case of application by infusion, 5 minutes after each application of GHRH, a blood sample of 0.8 mL was taken from a V. jugularis and mixed with EDTA (Eppendorf tubes TOM14, Milian, CH Geneva). The blood samples were kept on ice and spun in a cooled centrifuge. The serum or plasma was separated and frozen.
(§6) Statistics: In each experiment, 4-5 animals were used per dose, with 6 to 8 animals as the control group that received the vehicle. The GH serum/plasma levels were averaged, the mean of the treated groups expressed in percent of the control group and the ID50-value for the inhibition of the secretion was determined graphically (log-probit) for each experiment. In most experiments with enteral (intraduodenal) application only 1 dose, 10 mg/kg, was given. […] Only inhibitions between 20 and 80% were considered reliable.
(§7) Two to four experiments were performed. In the case of proper dose response curves, allowing the determination of an ID50 values were averaged logarithmically. In the cases of single dose-experiments, the GH value in percent of control were averaged logarithmically and the ID50 for this value was taken from the table. ID50 values determined at the different time points during the infusion were averaged and this value was included in the tables.

GH secretion [3] = experiment: GH secretion in vivo, rat, intraduodenal (enteral) application, 1 h (basal); settings: basal GH secretion, 1 h after intraduodenal application, mostly approximate ID50 from single 10 mg/kg dose, Ø = no effect at this dose, > = extrapolated value, 10 mg/kg
Method: as §1, §2, §3, §4, §5, §6, §7

[4] = system: GHRH stimulated GH secretion; experiment: GH secretion in vivo, rat, intravenous infusion with repeated GHRH stimulation
Method: as §1, §3, §4, §5, §6, §7

[5] = system: basal plasma levels of growth hormone, glucagon, insulin and glucose; experiment: Endocrine parameters in the Rhesus monkey after subcutaneous administration; format: in vivo
Method: Therefore, they were further investigated in the Rhesus monkey and their activity profile was determined. Using subcutaneous administration, they were characterized in this species, by measuring their effects on the basal plasma levels of growth hormone, glucagon, insulin as well changes in glucose levels.
Animals and blood sampling: Rhesus monkeys, fed on the previous day in the morning with fruits only, were placed, slightly anesthetized with ketamin (Ketalar©, Parke-Davis), in primate chairs and brought to the experimental room. A catheter, consisting of an in-dwelling cannula (Vasocan Braunüle, 20G, B. Braun Melsungen AG, D-Melsungen), an extension line made from PP 800/110/260/100 Portex© tubing and a special adapter between cannula and tubing with a minimal void volume, was placed in a saphenic vein. The total volume of this catheter was approximately 0.7 mL. The distal end was placed through a hole in the wall to the adjacent room in order to allow infusion and blood sampling without being noticed by the animal. The animals were monitored with a video system.
During the entire duration of the experiment an infusion of 5 to 10 mL/h of isotonic saline (NaCl 0.9% Braun, B. Braun Medical AG, CH-Emmenbrücke) containing heparin sodium 80 mg/L (Biochemie GMBH, A-Kundl) was maintained, using a roller pump (Vario-Perpex, Guldener, CH-Zürich). At each sampling time 1.5 mL (twice the void volume of the catheter) was taken in one syringe before collecting the actual blood sample of 2 mL in another syringe. The first 1.5 mL were reinfused immediately after the actual sample had been taken. The sample was mixed with 0.1 mL of a mixture containing EDTA (ethlenediaminetetraacetic acid tetrasodium Fluka, CH-Buchs) and aprotinin (Trasylol©, Bayer) resulting in final concentrations of 1.8 mg/mL and 1000 KIE/mL, respectively. The blood samples were kept on ice and spun in a cooled centrifuge. […]
Determinations: The blood levels of the hormones were determined by radioimmunoassay (RIA) using the appropriate antisera, antibodies, labels and standards, glucose by an enzymatic assay: […]

SS1 = SS1 (Rattus norvegicus, UniProt P30680); experiment: SS-1 binding (Bind SS1 D.H.)
SSTR1 = target: T2, SSTR1 (Homo sapiens, UniProt P30872); experiment: Binding SSTR1; settings: > = extrapolated value; read-out: Bind SSTR1
T2 construct: host or cells: SRIF receptor expressing cell cultures (general statement only)

SSTR3 = target: T3, SSTR3 (Homo sapiens, UniProt P32745); experiment: Binding SSTR3; settings: > = extrapolated value; read-out: Bind SSTR3
T3 construct: host or cells: SRIF receptor expressing cell cultures (general statement only)

SSTR4 = target: T4, SSTR4 (Homo sapiens, UniProt P31391); experiment: Binding SSTR4; settings: > = extrapolated value; read-out: Bind SSTR4
T4 construct: host or cells: SRIF receptor expressing cell cultures (general statement only)

SSTR5 = target: T5, SSTR5 (Homo sapiens, UniProt P35346); experiment: Binding SSTR5; settings: read-out: Bind SSTR5
T5 construct: host or cells: SRIF receptor expressing cell cultures (general statement only)
T5 sequence (P35346 whole entry, species assumed): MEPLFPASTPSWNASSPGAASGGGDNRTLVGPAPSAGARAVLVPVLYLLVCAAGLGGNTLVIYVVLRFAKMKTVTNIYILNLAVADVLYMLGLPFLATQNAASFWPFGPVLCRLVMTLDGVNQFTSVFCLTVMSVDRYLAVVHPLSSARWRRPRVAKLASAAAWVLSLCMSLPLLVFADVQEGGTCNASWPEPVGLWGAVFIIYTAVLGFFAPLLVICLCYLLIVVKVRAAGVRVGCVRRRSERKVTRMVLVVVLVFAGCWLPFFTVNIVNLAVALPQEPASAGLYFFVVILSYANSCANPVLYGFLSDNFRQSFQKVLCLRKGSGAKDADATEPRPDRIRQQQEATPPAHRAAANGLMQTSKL

T4 sequence (P31391 whole entry, species assumed): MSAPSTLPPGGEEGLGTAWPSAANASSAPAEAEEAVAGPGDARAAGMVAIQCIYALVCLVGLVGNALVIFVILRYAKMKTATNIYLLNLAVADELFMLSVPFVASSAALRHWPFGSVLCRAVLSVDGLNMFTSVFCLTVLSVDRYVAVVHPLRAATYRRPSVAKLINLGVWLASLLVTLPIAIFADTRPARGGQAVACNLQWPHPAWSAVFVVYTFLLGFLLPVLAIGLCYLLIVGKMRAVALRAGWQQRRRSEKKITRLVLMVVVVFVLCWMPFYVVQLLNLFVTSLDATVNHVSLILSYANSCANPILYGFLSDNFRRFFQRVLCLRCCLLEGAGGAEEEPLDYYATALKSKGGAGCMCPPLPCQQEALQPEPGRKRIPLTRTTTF
T3 sequence (P32745 whole entry, species assumed): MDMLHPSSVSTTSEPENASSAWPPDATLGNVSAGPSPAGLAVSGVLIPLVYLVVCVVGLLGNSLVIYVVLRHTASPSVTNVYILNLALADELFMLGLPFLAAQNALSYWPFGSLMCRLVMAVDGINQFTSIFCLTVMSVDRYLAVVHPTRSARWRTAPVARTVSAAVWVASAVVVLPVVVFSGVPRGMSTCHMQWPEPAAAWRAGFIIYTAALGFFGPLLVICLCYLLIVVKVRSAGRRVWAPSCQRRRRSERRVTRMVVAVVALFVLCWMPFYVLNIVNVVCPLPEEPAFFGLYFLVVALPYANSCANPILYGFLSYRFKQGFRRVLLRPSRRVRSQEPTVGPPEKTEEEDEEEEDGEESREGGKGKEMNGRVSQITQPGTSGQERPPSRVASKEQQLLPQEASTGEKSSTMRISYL
Chain of SS1 (P30680 whole entry): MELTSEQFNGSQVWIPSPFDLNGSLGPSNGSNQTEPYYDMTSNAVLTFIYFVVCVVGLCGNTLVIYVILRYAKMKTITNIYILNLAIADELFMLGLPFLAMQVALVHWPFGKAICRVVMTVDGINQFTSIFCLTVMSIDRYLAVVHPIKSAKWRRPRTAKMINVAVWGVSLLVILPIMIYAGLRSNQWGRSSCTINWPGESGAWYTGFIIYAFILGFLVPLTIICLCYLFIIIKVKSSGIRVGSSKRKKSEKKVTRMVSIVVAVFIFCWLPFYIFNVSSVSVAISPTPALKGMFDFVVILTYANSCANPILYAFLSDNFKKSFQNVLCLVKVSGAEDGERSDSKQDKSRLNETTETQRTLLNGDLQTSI
T2 sequence (P30872 whole entry, species assumed): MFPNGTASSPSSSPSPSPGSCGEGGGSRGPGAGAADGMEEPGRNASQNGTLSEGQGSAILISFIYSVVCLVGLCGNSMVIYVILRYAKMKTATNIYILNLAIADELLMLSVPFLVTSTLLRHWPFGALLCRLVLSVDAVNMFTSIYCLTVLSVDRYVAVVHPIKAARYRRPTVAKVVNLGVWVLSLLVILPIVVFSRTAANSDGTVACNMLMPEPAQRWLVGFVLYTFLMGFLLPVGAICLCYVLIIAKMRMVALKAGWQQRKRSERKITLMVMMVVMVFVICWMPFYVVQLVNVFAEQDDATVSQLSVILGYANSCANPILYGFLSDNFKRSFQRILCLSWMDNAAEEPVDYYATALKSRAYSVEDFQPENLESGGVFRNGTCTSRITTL
T1 sequence (P30874 whole entry): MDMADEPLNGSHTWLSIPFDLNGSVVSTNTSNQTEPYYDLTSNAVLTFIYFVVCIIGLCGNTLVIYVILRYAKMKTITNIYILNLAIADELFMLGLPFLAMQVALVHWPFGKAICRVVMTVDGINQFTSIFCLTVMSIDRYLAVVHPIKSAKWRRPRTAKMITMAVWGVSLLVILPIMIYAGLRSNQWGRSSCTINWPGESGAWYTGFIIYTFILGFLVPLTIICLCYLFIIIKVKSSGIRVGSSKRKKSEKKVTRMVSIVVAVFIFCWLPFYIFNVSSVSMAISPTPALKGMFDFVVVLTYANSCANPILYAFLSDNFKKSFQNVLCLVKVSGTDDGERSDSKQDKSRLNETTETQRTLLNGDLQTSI

IC50 [1]: 0.43 nM
Bind SS1 D.H. (SS1): 0.63 nM
IC50 (SSTR1): > 1000 nM
IC50 (SSTR3): 450 nM
IC50 (SSTR4): > 1000 nM
IC50 (SSTR5): 90 nM
SMILES: Cc1cccc2c(CC3C(=O)N(CCCCCN)C(=O)N3S(=O)(=O)c3ccc(Oc4ccc(O)cc4)c(C(=O)N(C)C)c3)c[nH]c12 (stereo not drawn) [Compound 46]
GH vivo s.c. 1 h ID50 (GH secretion [2]): 7.4 µg/kg and 7 µg/kg
GH vivo s.c. 1 h ID50 (GH secretion [2]; listed as 46 b): ˜7.40 μg/kg
GH vivo i.d. 1 h ID50 (GH secretion [3]): 19000 µg/kg
INFUS. + GHRH ID50 MEAN ([4]; Table 4, mean of infusion time points): 7.89 µg/kg
INFUS. + GHRH ID50 15′ ([4]; Table 4, urethan, 15′ of infusion): 9.38 µg/kg
INFUS. + GHRH ID50 30′ ([4]; Table 4, urethan, 30′ of infusion): 8.14 µg/kg
INFUS. + GHRH ID50 60′ ([4]; Table 4, urethan, 60′ of infusion): 6.43 µg/kg
GH, Ur Inf15′ +GHRH ([4]; Tables 8/9, urethane, 15′ of infusion): 9.400 µg/kg/h
GH, UR Inf30′ +GHRH ([4]; Tables 8/9, urethane, 30′ of infusion): 8.100 µg/kg/h
GH, UR Inf60′ +GHRH ([4]; Tables 8/9, urethane, 60′ of infusion): 6.400 µg/kg/h
GH vivo Inf + GHRH ID50 (mean of time points) ([4]; urethane, i.v. infusion, GHRH stimulated, listed as 46 b): 7.89 µg/kg/h and 7.900 µg/kg/h
dose levels necessary for inhibition of hormone release, times higher than Octreotride [5]: about 100 times
